Experimental findings from US20160326142A1, “PYRAZOLE CARBOXAMIDE COMPOUNDS, COMPOSITIONS AND METHODS OF USE” (Genentech, Inc., priority 2012, published 2016) are described below.

By Ki is commonly meant a dissociation constant, usually derived from enzyme kinetics or from competition with a known ligand. Low readings indicate higher affinity, high ones lower affinity.

In this test the target is T1, ITK (Homo sapiens, UniProt Q08881).
T1 construct: purchased Invitrogen PV3875
T1 sequence (Q08881 1-620): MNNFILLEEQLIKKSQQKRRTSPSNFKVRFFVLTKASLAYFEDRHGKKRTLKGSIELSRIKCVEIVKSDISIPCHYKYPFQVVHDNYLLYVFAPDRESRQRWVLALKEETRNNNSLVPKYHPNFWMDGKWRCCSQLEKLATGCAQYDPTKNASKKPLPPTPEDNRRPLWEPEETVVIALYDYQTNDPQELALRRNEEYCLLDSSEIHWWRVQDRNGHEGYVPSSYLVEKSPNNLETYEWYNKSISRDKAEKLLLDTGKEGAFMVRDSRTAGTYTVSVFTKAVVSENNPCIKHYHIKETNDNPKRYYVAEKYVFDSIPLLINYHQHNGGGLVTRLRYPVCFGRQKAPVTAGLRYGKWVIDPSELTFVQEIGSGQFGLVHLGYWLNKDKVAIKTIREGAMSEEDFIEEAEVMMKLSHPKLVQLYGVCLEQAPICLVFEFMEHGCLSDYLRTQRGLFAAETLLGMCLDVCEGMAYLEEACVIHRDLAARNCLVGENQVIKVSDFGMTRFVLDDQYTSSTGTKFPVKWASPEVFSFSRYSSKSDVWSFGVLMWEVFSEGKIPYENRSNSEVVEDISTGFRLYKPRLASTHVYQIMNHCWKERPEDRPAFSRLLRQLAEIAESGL
Nature of the test: ITK enzyme assay (Caliper or LCMS peptide phosphorylation). In kind it is biochemical. The conditions noted are these: purified ITK (Invitrogen PV3875), 20 μM ATP, Ki by Morrison's quadratic equation. The protocol:
The ability of purified ITK (Invitrogen PV3875) to catalyze peptide phosphorylation is monitored using a Caliper LabChip 3000 microfluidic unit (Caliper assay) or by liquid chromatography-mass spectrometry (LCMS) using a Waters Acquity system (LCMS assay). […] Reactions are quenched by the addition of 2,2′,2″,2′″-(ethane-1,2-diyldinitrilo)tetraacetic acid (50 mM final). Non-phosphorylated substrate and phosphorylated product peptides are separated and quantified using a Caliper LabChip 3000 instrument. […] Reactions are quenched by the addition of trichloroacetic acid (5% v/v final). Non-phosphorylated substrate and phosphorylated product peptides are separated by ultra performance LC and detected by a coupled triple quadrupole MS device applying multiple reaction monitoring (MRM) for quantification. The area of the MRM-extracted mass signal is used to assess the inhibition by test compounds. Equilibrium dissociation constant (Ki) values for ITK inhibitors are calculated from plots of activity vs. inhibitor concentration using Morrison's quadratic equation that accounts for the potential of tight binding, and by also applying the conversion factor that accounts for competitive inhibition and the concentration of ATP used in the assay relative to its apparent Michaelis constant (Km,app).
Regarding `N#Cc1cccc(Cn2cc(NC(=O)c3n[nH]c4c3CCC4)cn2)c1` [Example 20, N-(1-(3-cyanobenzyl)-1H-pyrazol-4-yl)-1,4,5,6-tetrahydrocyclopenta[c]pyrazole-3-carboxamide], the Ki worked out at 89 nM.

On to `CN1CCC2(CCc3c(C(=O)Nc4cnn(Cc5ccccc5)c4)n[nH]c3C2)C1=O` (single isomer, unassigned) [Example 123a, N-(1-benzyl-1H-pyrazol-4-yl)-1′-methyl-2′-oxo-1,4,5,7-tetrahydrospiro[indazole-6,3′-pyrrolidine]-3-carboxamide], for which the inhibition constant Ki was 88 nM.

Take `O=C(Nc1cnn(Cc2ccccc2)c1)c1n[nH]c2c1CCC1(CCCC1=O)C2` (single isomer, unassigned) [Example 105b, N-(1-benzyl-1H-pyrazol-4-yl)-2-oxo-1′,4′,5′,7′-tetrahydrospiro[cyclopentane-1,6′-indazole]-3′-carboxamide]: the Ki came to 240 nM.

Regarding `CC12Cc3[nH]nc(C(=O)Nc4cnn(C(c5cccnc5)C5CC[S+]([O-])CC5)c4)c3CC1C2` (single isomer, unassigned) [Example 146c, 5a-methyl-N-(1-((1-oxidotetrahydro-2H-thiopyran-4-yl)(pyridin-3-yl)methyl)-1H-pyrazol-4-yl)-1,4,4a,5,5a,6-hexahydrocyclopropa[f]indazole-3-carboxamide], the affinity corresponds to a Ki of 0.1 nM.

Consider `CC12Cc3[nH]nc(C(=O)Nc4cnn(C(c5ccccc5)C5CCS(=O)(=O)CC5)c4)c3CC1C2(F)F` (centres unmarked) [Example 141, N-(1-((1,1-dioxidotetrahydro-2H-thiopyran-4-yl)(phenyl)methyl)-1H-pyrazol-4-yl)-5,5-difluoro-5a-methyl-1,4,4a,5,5a,6-hexahydrocyclopropa[f]indazole-3-carboxamide], for which the inhibition constant (Ki) was below 0.1 nM.

As to `CC1(C)CCc2c(C(=O)Nc3cnn(C(CN4CCC4)c4ccccc4)c3)n[nH]c2C1` (single isomer, unassigned) [Example 57a, N-(1-(2-(azetidin-1-yl)-1-phenylethyl)-1H-pyrazol-4-yl)-6,6-dimethyl-4,5,6,7-tetrahydro-1H-indazole-3-carboxamide], the inhibitory constant (Ki) was determined as 2 nM.

Compound `CC1(C)CCc2c(C(=O)Nc3cnn(C(c4ccccc4)C4CNCCS4(=O)=O)c3)n[nH]c2C1` (single isomer, unassigned) [Example 127b] registered a Ki of 6 nM.

In turn, `CC1(C)Cc2[nH]nc(C(=O)Nc3cnn(C(c4ccccc4)C4CCS(=O)(=O)CC4)c3)c2C1` (single isomer, unassigned) [Example 94b, N-(1-((1,1-dioxidotetrahydro-2H-thiopyran-4-yl)(phenyl)methyl)-1H-pyrazol-4-yl)-5,5-dimethyl-1,4,5,6-tetrahydrocyclopenta[c]pyrazole-3-carboxamide] yielded a Ki of 13 nM.

`CN(CCC(c1ccccc1)n1cc(NC(=O)c2n[nH]c3c2CCC(C)(C)C3)cn1)C1COC1` (single isomer, unassigned) [Example 58a, 6,6-dimethyl-N-(1-(3-(methyl(oxetan-3-yl)amino)-1-phenylpropyl)-1H-pyrazol-4-yl)-4,5,6,7-tetrahydro-1H-indazole-3-carboxamide] showed an inhibitory constant (Ki) of 7 nM.

`CC1(C)CCc2c(C(=O)Nc3cnn(C(c4ccccc4)C4CN(S(C)(=O)=O)C4)c3)n[nH]c2C1` (single isomer, unassigned) [Example 45b, 6,6-dimethyl-N-(1-((1-(methylsulfonyl)azetidin-3-yl)(phenyl)methyl)-1H-pyrazol-4-yl)-4,5,6,7-tetrahydro-1H-indazole-3-carboxamide] had an inhibitory constant (Ki) of 48 nM.

For `CC1(C)Cc2[nH]nc(C(=O)Nc3cnn(C(c4ccccc4)C4CCS(=O)(=O)CC4)c3)c2C1` (single isomer, unassigned) [Example 94a, N-(1-((1,1-dioxidotetrahydro-2H-thiopyran-4-yl)(phenyl)methyl)-1H-pyrazol-4-yl)-5,5-dimethyl-1,4,5,6-tetrahydrocyclopenta[c]pyrazole-3-carboxamide], the Ki was determined as 0.3 nM.
